Source: ChEMBL document CHEMBL3352351 (Bioorg Med Chem, 2014)

Key:
A549 = assay: Cytotoxicity against human A549 cells after 72 hrs by MTT assay; conditions: A549, 72 h
HT-29 = assay: Cytotoxicity against human HT-29 cells after 72 hrs by MTT assay; conditions: HT-29, 72 h
[1] = Cytotoxicity against human U87MG cells after 72 hrs by MTT assay; format: functional, cell-based, U-87MG ATCC; conditions: U-87 MG
[2] = Cytotoxicity against human MKN45 cells after 72 hrs by MTT assay; conditions: MKN-45, 72 h

SMILES	IC50 (A549) [nM]	IC50 (HT-29) [nM]	IC50 [1] [nM]	IC50 [2] [nM]
COc1cc2c(Oc3ccc(NC(=O)c4nnn(-c5ccccc5C)c4C)cc3F)ccnc2cc1OCCCN1CCCC1	380	450	1600	270
COc1cc2c(Oc3ccc(NC(=O)c4nnn(-c5ccccc5)c4C)cc3F)ccnc2cc1OCCCN1CCCC1	90	130	1000	40
COc1cc2c(Oc3ccc(NC(=O)c4nnn(-c5ccccc5C(F)(F)F)c4C)cc3F)ccnc2cc1OCCCN1CCCC1	160	200	1060	70
COc1cc2c(Oc3ccc(NC(=O)c4nnn(-c5ccc(C)cc5)c4C(F)(F)F)cc3F)ccnc2cc1OCCCN1CCCC1	370	550	–	210
COc1cc2c(Oc3ccc(NC(=O)c4nnn(-c5ccc(F)c(F)c5)c4C(F)(F)F)cc3F)ccnc2cc1OCCCN1CCCC1	170	180	1070	70
COc1ccc(-n2nnc(C(=O)Nc3ccc(Oc4ccnc5cc(OCCCN6CCCC6)c(OC)cc45)c(F)c3)c2C(F)(F)F)cc1	560	1020	–	590
COc1cc2c(Oc3ccc(NC(=O)c4nnn(-c5ccccc5C)c4C)cc3F)ccnc2cc1OCCCN1CCOCC1	320	470	1500	220
COc1cc2c(Oc3ccc(NC(=O)c4nnn(-c5ccccc5)c4C)cc3F)ccnc2cc1OCCCN1CCOCC1	140	180	1060	60
COc1cc2c(Oc3ccc(NC(=O)c4nnn(-c5ccccc5C(F)(F)F)c4C)cc3F)ccnc2cc1OCCCN1CCOCC1	180	200	1010	100
COc1cc2c(Oc3ccc(NC(=O)c4nnn(-c5ccc(F)cc5)c4C(F)(F)F)cc3F)ccnc2cc1OCCCN1CCOCC1	130	140	1080	60
COc1cc2c(Oc3ccc(NC(=O)c4nnn(-c5ccc(C)cc5)c4C(F)(F)F)cc3F)ccnc2cc1OCCCN1CCOCC1	350	570	2700	620
COc1cc2c(Oc3ccc(NC(=O)c4nnn(-c5ccccc5C(F)(F)F)c4C(F)(F)F)cc3F)ccnc2cc1OCCCN1CCOCC1	210	230	1160	90
COc1cc2c(Oc3ccc(NC(=O)c4nnn(-c5ccc(F)c(F)c5)c4C(F)(F)F)cc3F)ccnc2cc1OCCCN1CCOCC1	150	230	1130	50
COc1ccc(-n2nnc(C(=O)Nc3ccc(Oc4ccnc5cc(OCCCN6CCOCC6)c(OC)cc45)c(F)c3)c2C(F)(F)F)cc1	640	1080	2400	680
COc1cc2c(Oc3ccc(NC(=O)c4nnn(-c5ccccc5C)c4C)cc3F)ccnc2cc1OCCCN1CCCCC1	330	450	2370	160
COc1cc2c(Oc3ccc(NC(=O)c4nnn(-c5ccccc5)c4C)cc3F)ccnc2cc1OCCCN1CCCCC1	100	120	1130	80
COc1cc2c(Oc3ccc(NC(=O)c4nnn(-c5ccccc5C(F)(F)F)c4C)cc3F)ccnc2cc1OCCCN1CCCCC1	170	200	1150	90
COc1cc2c(Oc3ccc(NC(=O)c4nnn(-c5cccc(Br)c5)c4C(F)(F)F)cc3F)ccnc2cc1OCCCN1CCC(C)CC1	350	380	–	120
COc1ccc(-n2nnc(C(=O)Nc3ccc(Oc4ccnc5cc(OCCCN6CCN(C)CC6)c(OC)cc45)c(F)c3)c2C(F)(F)F)cc1	1220	2200	–	330
